Experimental findings from the C3SDB collision cross section collection are described below.

Each structure is given as a SMILES string.

For the first series the following is noted: [M+H]+; instrument: TW; Major Mix IMS/Tof Calibration Kit (Waters).
Consider `COc1cc(CCN)c(OC)cc1Br` [2C-B], for which the “collision cross section (N2)” value came out at 155.6 Å².
On the same count and under the same terms, for `COc1cc(CCNCc2ccccc2OC)c(OC)cc1Cl` [25C-NBOMe] the value was 177.6 Å²; for `CCCC(=O)Nc1ccc(OCC(O)CNC(C)C)c(C(C)=O)c1` (stereo not given) [Acebutolol], 190.2 Å².
In the case of `CC(=O)c1ccc2c(c1)N(CCCN(C)C)c1ccccc1S2` [Acepromazine], the “collision cross section (N2)” value is recorded as 176.6 Å².
On the same count and under the same terms, for `Cc1nnc2n1-c1ccc(Cl)cc1C(c1ccccc1)=NC2` [Alprazolam] the value was 171.5 Å².
The same measure, in the same setting: the figure for `CCN(CC)C(C)C(=O)c1ccccc1` (stereo not given) [Amfepramone] is 148 Å².
Still for that read-out and setting: the figure for `CCN1CCCC1CNC(=O)c1cc(S(=O)(=O)CC)c(N)cc1OC` (stereo not given) [Amisulpride] is 193.1 Å².
With `CC(C)NCC(O)COc1ccc(CC(N)=O)cc1` (stereo not given) [Atenolol], the “collision cross section (N2)” value worked out at 159.5 Å².
The same measure, in the same setting: for `CN1[C@@H]2CC[C@H]1C[C@@H](OC(=O)C(CO)c1ccccc1)C2` (stereo not given in full) [Atropine] the value was 171.5 Å²; for `CCOC(=O)c1ccc(N)cc1` [Benzocaine], 148.2 Å²; for `CN1[C@H]2CC[C@@H]1[C@@H](C(=O)O)[C@@H](OC(=O)c1ccccc1)C2` [Benzoylecgonine], 167.3 Å².
Still for that read-out and setting: the figure for `CCCCN1CCCCC1C(=O)Nc1c(C)cccc1C` (stereo not given) [Bupivacaine] is 173.1 Å².
On the same count and under the same terms, the figure for `CC(NC(C)(C)C)C(=O)c1cccc(Cl)c1` (stereo not given) [Bupropion] is 157.8 Å²; for `O=C1CC2(CCCC2)CC(=O)N1CCCCN1CCN(c2ncccn2)CC1` [Buspirone] it is 199.3 Å².
`Cn1c(=O)c2c(ncn2C)n(C)c1=O` [Caffeine]: the “collision cross section (N2)” value came out at 138.3 Å².
As to `C[C@H](CS)C(=O)N1CCC[C@H]1C(=O)O` [Captopril], the “collision cross section (N2)” value was determined as 142.5 Å².
For `NC(=O)N1c2ccccc2C=Cc2ccccc21` [Carbamazepine], the “collision cross section (N2)” value is 150.3 Å².
In the case of `COc1ccccc1OCCNCC(O)COc1cccc2[nH]c3ccccc3c12` (stereo not given) [Carvedilol], the “collision cross section (N2)” value came out at 190 Å².
Regarding `Cc1ccc(-c2cc(C(F)(F)F)nn2-c2ccc(S(N)(=O)=O)cc2)cc1` [Celecoxib], the “collision cross section (N2)” value stood at 186.4 Å².
The same measure, in the same setting: for `OCCN1CCN(C(c2ccccc2)c2ccc(Cl)cc2)CC1` (stereo not given) [Cetirizine-M O-desalkyl] the value was 186.2 Å²; for `CNC1=Nc2ccc(Cl)cc2C(c2ccccc2)=[N+]([O-])C1` [Chlordiazepoxide], 170.4 Å².
Still for that read-out and setting: for `CN(C)CCC(c1ccc(Cl)cc1)c1ccccn1` (stereo not given) [Chlorphenamine] the value was 164.5 Å².
Regarding `CNCCCN1c2ccccc2Sc2ccc(Cl)cc21` [Chlorpromazine-M norl], the “collision cross section (N2)” value is listed as 168.7 Å².
As for `CNCC/C=C1/c2ccccc2Sc2ccc(Cl)cc21` [Chlorprothixene-M N-desmethyl], the “collision cross section (N2)” value is on record as 165.9 Å².
In the case of `CN/C(=N\C#N)NCCSCc1nc[nH]c1C` [Cimetidine], the “collision cross section (N2)” value is recorded as 156.5 Å².
As for `CN(C)CCCC1(c2ccc(F)cc2)OCc2cc(C#N)ccc21` (stereo not given) [Citalopram], the “collision cross section (N2)” value was 180.1 Å².
For `CC(C)(C)NCC(O)c1cc(Cl)c(N)c(Cl)c1` (stereo not given) [Clenbuterol], the “collision cross section (N2)” value was found to be 165.6 Å².
On the same count and under the same terms, for `O=C1CN=C(c2ccccc2Cl)c2cc([N+](=O)[O-])ccc2N1` [Clonazepam] the value was 168.2 Å²; for `CN1CCN(C2=Nc3cc(Cl)ccc3Nc3ccccc32)CC1` [Clozapine], 178.8 Å².
The same measure, in the same setting: for `CCOC(=O)[C@H]1[C@@H](OC(=O)c2ccccc2)C[C@@H]2CC[C@H]1N2C` [Cocaine-M Cocaethylene] the value was 173.5 Å².
The same measure, in the same setting: for `CN1CCN(C(c2ccccc2)c2ccccc2)CC1` [Cyclizine] the value was 166.7 Å²; for `CN(C)CCC=C1c2ccccc2C=Cc2ccccc21` [Cyclobenzaprine], 164.7 Å²; for `COc1ccc2c(c1)[C@]13CCCC[C@@H]1[C@H](C2)N(C)CC3` [Dextromethorphan], 166.3 Å².
Take `CCC(=O)O[C@](Cc1ccccc1)(c1ccccc1)[C@H](C)CN(C)C` [Dextropropoxyphene]: the “collision cross section (N2)” value was determined as 180.7 Å².
In the case of `O=C(O)Cc1ccccc1Nc1c(Cl)cccc1Cl` [Diclofenac], the “collision cross section (N2)” value is listed as 157.7 Å².
As to `CN1CC[C@]23c4c5ccc(O)c4O[C@H]2[C@@H](O)CC[C@H]3[C@H]1C5` [Dihydromorphine], the “collision cross section (N2)” value turned out to be 163.6 Å².
Still for that read-out and setting: the figure for `COc1ccc([C@@H]2Sc3ccccc3N(CCN(C)C)C(=O)[C@@H]2O)cc1` [Diltiazem-M deacetyl] is 186.3 Å².
Same read-out and setting: for `CNC(=O)CSP(=S)(OC)OC` [Dimethoate] the value was 139.9 Å².
The same measure, in the same setting: for `OCCN(CCO)c1nc(N2CCCCC2)c2nc(N(CCO)CCO)nc(N3CCCCC3)c2n1` [Dipyridamole] the value was 227.5 Å²; for `CC(CN1CCN(CCOCCO)CC1)CN1c2ccccc2Sc2ccccc21` (stereo not given) [Dixyrazine], 201 Å²; for `COc1cc2c(cc1OC)C(=O)C(CC1CCN(Cc3ccccc3)CC1)C2` (stereo not given) [Donepezil], 198.1 Å².
Take `CN(C)CCC=C1c2ccccc2CSc2ccccc21` [Dosulepin]: the “collision cross section (N2)” value came to 167.3 Å².
The same measure, in the same setting: for `COc1cc2nc(N3CCN(C(=O)C4COc5ccccc5O4)CC3)nc(N)c2cc1OC` (stereo not given) [Doxazosin] the value was 202.9 Å²; for `CN(C)CCOC(C)(c1ccccc1)c1ccccn1` (stereo not given) [Doxylamine], 161.9 Å²; for `COC(=O)[C@@H]1CC2=CC(=O)CC[C@]2(C)[C@@]23O[C@@H]2C[C@@]2(C)[C@@H](CC[C@@]24CCC(=O)O4)[C@H]13` [Eplerenone], 197.6 Å².
As for `CCNC(C)C(=O)c1ccccc1` (stereo not given) [Ethcathinone], the “collision cross section (N2)” value is 139.2 Å².
With `Fc1ccc(C(c2ccc(F)cc2)N2CCN(C/C=C/c3ccccc3)CC2)cc1` [Flunarizine], the “collision cross section (N2)” value is recorded as 211.5 Å².

The conditions of the next series: [M+H]+; instrument: DT; single field, calibrated with Agilent tune mix (Agilent).
Take `CCCCCCCCCCCCCCCCCCCC(=O)OC[C@@H](O)COP(=O)([O-])OCC[N+](C)(C)C` [LPC(20:0)]: the “collision cross section (N2)” value is listed as 243.9 Å².
The same measure, in the same setting: for `CCCCCC/C=C\CCCCCCCC(=O)OC[C@H](COP(=O)(O)O[C@H]1C(O)C(O)C(O)[C@@H](O)C1O)OC(=O)CCCCCCCCC/C=C\CCCCCCCCCC` (stereo not given in full) [PI(38:2)] the value was 305.1 Å²; for `CCCCCCCCCCCCCCC[C@@H](O)[C@H](COP(=O)([O-])OCC[N+](C)(C)C)NC(=O)CCCCCCCCCCCCC` [SM(32:0)], 278.5 Å².

Still in this series, the particulars now being: [M+NH4]+; instrument: DT; single field, calibrated with Agilent tune mix (Agilent).
As to `CCCCCC/C=C\CCCCCCCC(=O)OC[C@H](COP(=O)(O)O[C@H]1C(O)C(O)C(O)[C@@H](O)C1O)OC(=O)CCCCCCCCC/C=C\CCCCCCCCCC` (stereo not given in full) [PI(38:2)], the “collision cross section (N2)” value was 306 Å².
On the same count and under the same terms, the figure for `CCCCC/C=C\CCCCCCCC(=O)OC[C@H](COC(=O)CCCCCCCCCCCCCCCCCC)OC(=O)CCCCCCCCCCCCCCCCCC` [TG(53:1)] is 325 Å²; for `CCCCC/C=C\C/C=C\C/C=C\C/C=C\CCCCCC(=O)OC[C@@H](COC(=O)CCCCCCCCCCCC)OC(=O)CCCCCCC/C=C\CCCCCCCCC` [TG(54:5)] it is 322.1 Å²; for `CCCCCCCCCC/C=C\CCCCCCCCCC(=O)OC[C@@H](COC(=O)CCCCCCCCCCC)OC(=O)CCCCCCCCCCCCCCCCCCCCC` [TG(56:1)] it is 333.6 Å².
On the same count and under the same terms, the figure for `CC/C=C\C/C=C\C/C=C\C/C=C\C/C=C\CCCCCC(=O)OC[C@@H](COC(=O)CCCCCCC/C=C\C/C=C\CCCCC)OC(=O)CCCCCC/C=C\C/C=C\C/C=C\CCCCC` [TG(60:10)] is 334.1 Å²; for `CCCCCCCC/C=C\CCCCCCCC(=O)OC[C@H](COC(=O)CCCCCCCCC/C=C\CCCCCCCCCC)OC(=O)CCCCCCCCC/C=C\CCCCCCCCCC` [TG(62:3)] it is 346.8 Å²; for `CCCCC/C=C\C/C=C\C/C=C\C/C=C\CCCCCC(=O)OC[C@@H](COC(=O)CCCCCCC/C=C\CCCCCCCC)OC(=O)CCCCCCCCCCC/C=C\C/C=C\CCCCC` [TG(62:7)] it is 343.6 Å².
On to `CC/C=C\C/C=C\C/C=C\C/C=C\C/C=C\CCCCCC(=O)OC[C@@H](COC(=O)CCCC/C=C\C/C=C\C/C=C\C/C=C\CC)OC(=O)CCCCC/C=C\C/C=C\C/C=C\C/C=C\C/C=C\CC` [TG(62:14)], for which the “collision cross section (N2)” value is on record as 332.7 Å².

Still in this series, the particulars now being: [M+Na]+; instrument: DT; single field, calibrated with Agilent tune mix (Agilent).
`CCCCCC/C=C\CCCCCCCC(=O)OC[C@H](COP(=O)(O)O[C@H]1C(O)C(O)C(O)[C@@H](O)C1O)OC(=O)CCCCCCCCC/C=C\CCCCCCCCCC` (stereo not given in full) [PI(38:2)]: the “collision cross section (N2)” value is listed as 303.2 Å².

Still in this series, the particulars now being: [M-H]-; instrument: DT; single field, calibrated with Agilent tune mix (Agilent).
For `CCCCC/C=C\C/C=C\CCCCCCCC(=O)O[C@H](COC(=O)CCCCCCCCC/C=C\CCCCCCCC)COP(=O)(O)OC[C@@H](O)CO` [PG(38:3)], the “collision cross section (N2)” value amounted to 279.2 Å².
For `CCCCCC/C=C\CCCCCCCC(=O)OC[C@H](COP(=O)(O)O[C@H]1C(O)C(O)C(O)[C@@H](O)C1O)OC(=O)CCCCCCCCC/C=C\CCCCCCCCCC` (stereo not given in full) [PI(38:2)], the “collision cross section (N2)” value stood at 295.2 Å².
With `CCCCC/C=C\C/C=C\C/C=C\CCCCCCC(=O)O[C@H](COC(=O)CCCCCCCCCCCCCCCCCC)COP(=O)(O)O[C@H]1C(O)C(O)C(O)[C@@H](O)C1O` (stereo not given in full) [PI(39:3)], the “collision cross section (N2)” value is on record as 296.5 Å².
The same measure, in the same setting: for `CCCCC/C=C\C/C=C\C/C=C\C/C=C\CCCCCC(=O)O[C@H](COC(=O)CCCCCCCCCCCCCCCC)COP(=O)(O)O[C@H]1C(O)C(O)C(O)[C@@H](O)C1O` (stereo not given in full) [PI(39:4)] the value was 295 Å².

For another series the following is noted: [M+H]+; instrument: DT; stepped-field.
Take `CCCCCCCCCCCCCCCCCCCC(=O)OC[C@@H](O)COP(=O)([O-])OCC[N+](C)(C)C` [LPC(20:0)]: the “collision cross section (N2)” value was 248.6 Å².

The series is the same for the next values; noted with them: [M+Na]+; instrument: DT; stepped-field.
As to `CCCCCCCCCCCCCCCCCCCC(=O)OC[C@@H](O)COP(=O)([O-])OCC[N+](C)(C)C` [LPC(20:0)], the “collision cross section (N2)” value was 251.13 Å².
